Values quoted from earlier work in US20240264159A1 (priority 2021, published 2024).

Tested on: SARS-CoV-2
Settings: Bewley et al., 2021; cited from earlier work

For heparin, which “inhibition of SARS-CoV-2 entry into cells” value is on record?
Its value is “inhibit SARS-CoV-2 entry into cells”.
